From US4668681A, “2-(4-Phenylpiperazinylethyl) anilines” (Societe Cortial, S.A., priority 1981, dated 1987)
In brackets after ≈: the same amount, converted by molar mass.

What was measured:
male Sprague-Dawley rats = assay: Antiallergic activity: passive cutaneous anaphylaxis test; format: in vivo; settings: oral, suspension with Tween 80, ten minutes before the releasing injection, rat; read-out: ED50 (percentage decrease of the amount of Evans blue diffused in the papule)
Method: The antiallergic activity was determined by the passive cutaneous anaphylaxis test in the following manner. A quantity of 0.1 ml of serum containing IgE was administered intradermally to male Sprague-Dawley rats. The serum was prepared by sensitizing Sprague-Dawley rats by an intraperitoneal injection of ovalbumin and a suspension of Bordetella pertussis followed after 20 days by a second injection of ovalbumin. 24 Hours after administration of the serum, 0.5 ml of a solution containing 8.25 mg/kg of ovalbumin and 26.4 mg/kg of Evans blue in a pH 7.05 buffer was administered intravenously. After 30 minutes the animals were sacrificed. Each papule was dissected, weighed and incubated for four days at 37° C. in 15 g of formamide. The amount of Evans blue contained in each papule was determined by measuring the optical density of the mixture. The product to be tested was administered orally in a homogenous suspension in the presence of Tween 80, ten minutes before the releasing injection. Its activity is evaluated by the percentage decrease of the amount of Evans blue which has diffused in the papule.

[1] = Lethality (LD50) by oral administration in the Swiss mouse; settings: in vivo, 20% solution in Tween, 14 days observation
Method: The lethality produced by the compounds of this invention was measured in the Swiss mouse free from specific pathogenic organisms.

[2] = system: isolated ileum of the guinea pig; assay: Antihistaminic activity in vitro: inhibition of histamine-induced contractions of isolated ileum; format: cell-based; settings: Cavia porcellus, histamine 1×10^-8 g/l, bathing method, read-out: IC50 (concentration producing 50% inhibition of contractions induced by histamine)
Method: The antihistaminic activity was measured in vitro by measuring the concentration which produced 50% inhibition of the contractions induced by histamine (1×10^-8 g/l) in the isolated ileum of the guinea pig (IC50).

With Nc1ccccc1CCN1CCN(c2ccccc2)CC1 [Example 1, 2-(4-phenylpiperazinylethyl)aniline] the ED50 (male Sprague-Dawley rats) was 5.11 mg/kg, the LD50 at 336 h [1] was 1180 mg/kg and the IC50 [2] was 6.3 µg/mL (≈ 22.4 µM).
